Data reported in US20230040386A1, “URSODEOXYCHOLIC ACID-CONTAINING AGENT FOR TREATING OR PREVENTING PRESBYOPIA” (priority 2018, published 2023).

Experiments:
lens [1] = assay: Pharmacological Test 5: lens elasticity, 1% ursodeoxycholic acid once-daily for 1, 3, 7, 10 or 14 days; format: in vivo, C57BL/6J mice; details: for Lens elasticity improvement: 1% sample, QD, 24 h after final instillation, vs untreated group
Description: A vehicle comprising 0.1% (w/v) of ethyl pyruvate, 0.269% (w/v) of sodium dihydrogenphosphate monohydrate (NaH2PO4H2O), 0.433% (w/v) of disodium hydrogenphosphate (Na2HPO4), 0.2% (w/v) of hydroxypropyl methylcellulose, 0.5% (w/v) of NaCl was prepared. Ursodeoxycholic acid was sonicated with the addition of the vehicle to prepare a 1.0% (w/v) suspension. The total amount of the sample to be used in one day was prepared before use. 1) The test sample (2.5 μL/eye) was instilled into both eyes of 8-month-old C57BL/6J mice with a Pipetman once per day (QD; around 13:30) for 1, 3, 7, 10, or 14 days. 2) Twenty-four hours after the final instillation, the mice were euthanized by carbon dioxide inhalation, and then the eyeballs were extracted and rinsed with Hank's balanced salt solution (HBSS). 3) The sclera near the optic nerve was cut with a razor, the lens was removed through the incision, and the removed lens was immersed in HBSS. 4) The lens was placed on a glass slide, and an all-in-one fluorescence microscope BZ-9000 (Keyence) was used to capture an image of the lens (image a). 5) Next, one cover glass (Corning^(registered trade mark) 22×22 mm Square) was placed on the lens, and an image in which the thickness of the lens changed due to the weight was similarly captured (Image b). 6) A change in the lens diameter was calculated from Equation 1 wherein the lens diameter of Image a is subtracted from the lens diameter of Image b, as described below. Then, the lens elasticity improvement of each sample group compared with the […] was calculated from Equation 2 described below. Each mean of the untreated group and each ursodeoxycholic acid sample group was based on 9 or 10 eyes. Change in lens diameter=Lens diameter in Image b of each test sample−Lens diameter in Image a of each test sample (Equation 1) Lens elasticity improvement of each sample group=Mean change in lens diameter of each Test sample group−Mean change in lens diameter of Untreated group (Equation 2)

[2] = system: anterior segment of the eye; assay: Ocular Irritation Test (McDonald-Shadduck method, lens observation, histopathology); format: in vivo, Japanese White rabbits
Description: A vehicle (aqueous solution) comprising 0.1% (w/v) of ethyl pyruvate, 0.269% (w/v) of sodium dihydrogenphosphate monohydrate ([…]), 0.433% (w/v) of disodium hydrogenphosphate (Na2HPO4), 0.2% (w/v) of hydroxypropyl methylcellulose, 0.5% (w/v) of NaCl was prepared.
Group treated with an ophthalmic suspension of ursodeoxycholic acid 1% (w/v), 3% (w/v), and 10% (w/v) ursodeoxycholic acid ophthalmic suspensions were prepared in the same manner as in the above pharmacological tests. These ophthalmic suspensions and the vehicle were each instilled into the left eye of Japanese White rabbits at a dose of 50 μL/eye with pipette twice per day at a 6-hour interval for 2 weeks. One hour after the final instillation, ocular irritation of anterior segment of the eye was evaluated according to the McDonald-Shadduck method, and the lens was observed. The contralateral eye was untreated.
The ocular irritation of anterior segment of the eye was scored according to the following criteria:
+1: mild; +2: moderate; +3: severe.

lens [3] = assay: Pharmacological Test 1: lens elasticity after instillation of EV06; format: in vivo, C57BL/6J mice; details: all of the 0.5%, 1.5% and 5% groups compared with vehicle control group
Description: The effect of lipoic acid choline ester (EV06) on the lens elasticity was examined. The tests were conducted with reference to the methods described in InvestOphthalmol Vis Sci, 57, 2851-2863, 2016. EV06 is a compound represented by the following formula (2): A vehicle comprising 0.1% (w/v) of ethyl pyruvate, 0.269% (w/v) of sodium dihydrogenphosphate monohydrate (NaH2PO4H2O), 0.433% (w/v) of disodium hydrogenphosphate ([…]), 0.2% (w/v) of hydroxypropyl methylcellulose, and 0.5% (w/v) of NaCl was prepared. EV06 was sonicated with the addition of the vehicle to prepare a 5% (w/v) suspension. The resulting 5% (w/v) suspension was diluted with the vehicle to prepare a 1.5% (w/v) solution. Further, the resulting 1.5% (w/v) solution was diluted with the vehicle to prepare a 0.5% (w/v) solution. The total amount of each sample to be used in one day was prepared before use. […] 4) The lens was placed on a glass slide, and an all-in-one fluorescence microscope BZ-9000 (Keyence) was used to capture an image of the lens (Image a). […] 6) A change in the lens diameter was calculated from Equation 1 wherein the lens diameter of Image a is subtracted from the lens diameter of Image b, as described below. Then, the lens elasticity improvement of each sample group compared with the vehicle control group was calculated from Equation 2 described below. […]

[4] = after 2 week-repeated instillation of 1%, 3%, 10% ophthalmic suspensions

C[C@H](CCC(=O)O)[C@H]1CC[C@H]2[C@@H]3[C@@H](O)C[C@@H]4C[C@H](O)CC[C@]4(C)[C@H]3CC[C@]12C [ursodeoxycholic acid, 3α,7β-Dihydroxy-5β-cholan-24-oic acid] was tested, and the “Lens elasticity improvement, in words” value (lens [1]; 1% sample instilled once-daily, by duration of instillation) was “showed definitely an improvement in lens elasticity after instillation for 3 days”, the Lens elasticity improvement (lens [1]; 1 day) was 9.6 μm and the Lens elasticity improvement (lens [1]; 3 days) was 21.1 μm. For the same molecule, the Lens elasticity improvement (lens [1]; 7 days) was 27.4 μm, the Lens elasticity improvement (lens [1]; 10 days) was 38.1 μm and the Lens elasticity improvement (lens [1]; 14 days) was 34.2 μm. For the same molecule, the “Histopathological examination of the eyes, in words” value [2, 4] was “no abnormal findings”, the “Observation of ocular irritation of anterior segment of the eye and lens observation, in words” value [2, 4] was “no abnormal findings” and the “Safety of the ophthalmic suspensions, in words” value ([2]; rabbit, in vivo) was “highly safe”.

C[N+](C)(C)CCOC(=O)CCCC[C@@H]1CCSS1 [EV06, lipoic acid choline ester] was tested, and the “Lens diameter / elasticity improving effect, in words” value (lens [3]) was “increased lens diameter”.
